The values below come from patent US6916845B2, “Method for prevention and treatment of male and female sexual dysfunction” (priority 1999, dated 2005).

Data set [1] concerns rabbit's CC smooth muscle. Description: Relaxation of PHE pre-contracted corpus cavernosum smooth muscle strips in organ chamber. Particulars: for effect of pre-treatment on the relaxation effects of icariin: pre-treatment before icariin. In kind it is cell-based. Here is the method:
Sixty adults male New Zealand white rabbits(Weight: 2.5-3.0 kg) were used. Rabbits were anesthesia with sodium pentobarbital(50 mg/kg), penis was removed and corpus cavernous tissue were carefully isolated and made into 2×2×6 mm muscle strips for isometric tension was measured in organ chamber in vitro study with polygraph(MP 100 WS:Biopac systems, USA). CC muscle strip was fixed in 10 ml organ chamber containing Tyrode solution and continuously supplied with mixed gas(95% O2 and 5% CO2) and keep temperature at 37° C. The initial resting tensions of muscle strips were set at 2 g and tissue was allowed to equilibrate for 1.5-3.0 hours. Sub-maximal contractile responses to phenylepherine(PHE 5×10^-6 M) were observed and optimal isometric tension was determined. To evaluate the relaxation effects of icariin (the other components magnoflorine, querectin, epimedin A, B and C as the controls) on CC muscle strips, investigated the relaxation effects of different dosage of icariin on muscle strips pre-contracted by PHE. And to investigate the pharmaceutical action mechanism, the effects of […] Nω-nitric-L-arginine(L-NNA), guanylate cyclase antagonist methylene blue and pyrogallol, soluble guanylate cyclase inhibitor 1H-[1,2,4]oxadiazolo[4,3,-a]quinoxalin-1-one (ODQ) on the relaxation effects of icariin on CC.

A further data set has as its system adult male rat. Description: Intracavernosal press (ICP) changes after intracavernosal administration and cavernous nerve electrical stimulation. Particulars: for Inhibiting Effect on Icariin induced Relaxation of CC. (ICP changes): 10 minutes after Icariin 100 μl 10^−4M. In kind it is in vivo. Here is the method:
Twenty-four male, adult Wistar rats(weight:300-350 g) were used. After anesthetization, the left carotid artery was cannulated to monitor mean arterial pressure (MAP). Bipolar electrodes were positioned on the cavernous nerve (CN); the right cavernous body was cannulated with 26 G needle connected with Biopack MP100 to monitor ICP changes. After intracavemosal administration of 100 μl different concentration Icariin or Reserpine (10^−8M to 10^−4M) respectively, the CN was electrically stimulated (ES) 10 minutes later and ICP and MAP were monitored. In order to investigate the possible mechanism of the effect of icariin on ICP changes, 100 μl different concentration guanylate cyclase inhibitor ODQ (10^−8M-10^−4M) were intracavemosal administrated 10 minutes after Icariin (100 μl 10^−4M) administration into CC, and then the ICP was measured during erection, which was, followed the ES.

The subject of data set [2] is cGMP formation in rabbit corpus cavernosum. Description: cGMP formation in corpus cavernosum of penis stimulated with SNP, radioimmunoassay. In kind it is cell-based. Particulars: in the presence of SNP.
In a further data set the test system is patients. The settings on record: patients on antihypertensive agent; cited from earlier work.
The subject of data set [3] is cGMP formation in clitoris CC of female rabbits. In words: cGMP formation in CC of clitoris stimulated with SNP, radioimmunoassay. In kind it is cell-based, rabbit.
In data set [4] the test system is PDE4 isolated from human liver tissue. Description: Inhibition of cAMP specific PDE4, two-step radioisotope procedure. The class given is biochemical. The procedure: PDE5 and PDE4 were isolated from human platelets and liver tissue using a Pharmacia FPLC system and Mono Q column. The cyclic nucleotide PDE5/PDE4 activities in FPLC fractions were determined using a modification of the two-step radioisotope procedure ([^3H]GMP/[^3H]AMP).

Molecules are shown by their SMILES.

For the compound `NC(=NCCC[C@H](N)C(=O)O)N[N+](=O)[O-]` [L-NNA, Nω-nitric-L-arginine], the figures for the “icariin induced relaxation of CC smooth muscle strips after pre-treatment with the named inhibitor” value in data set [1] (icariin 10^−4M), in data set [1] (icariin 10^−5M) and in data set [1] (icariin 10^−6M) were 15.68 ± 1.15%, 3.23 ± 0.89% and 0.82 ± 0.58%, respectively. For the same compound, in data set [1], the “effect of pre-treatment on the relaxation effects of icariin” value (“effect of pre-treatment” for short) is reported as “significantly inhibited”.

With `CN(C)c1ccc2nc3ccc(=[N+](C)C)cc-3sc2c1` [Methylene blue, methylene blue], the “icariin induced relaxation of CC smooth muscle strips after pre-treatment with the named inhibitor” value in data set [1] (icariin 10^−4M) came to 13.45 ± 1.12%; in data set [1] (icariin 10^−5M), 2.02 ± 0.45%; in data set [1] (icariin 10^−6M), 0.52 ± 0.68%. Besides, in data set [1], the “effect of pre-treatment” value is reported as “significantly inhibited”.

For `O=c1onc2cnc3ccccc3n12` [ODQ, 1H-[1,2,4]oxadiazolo[4,3,-a]quinoxalin-1-one], the “Inhibiting Effect on Icariin induced Relaxation of CC. (ICP changes)” value stood at 80.24 ± 8.05% with adult male rat (ODQ 10^−4M), 58.45 ± 6.00% with adult male rat (ODQ 10^−5M), 23.09 ± 4.29% with adult male rat (ODQ 10^−6M) and 17.16 ± 1.77% with adult male rat (ODQ 10^−7M). Further, the “icariin induced relaxation of CC smooth muscle strips after pre-treatment with the named inhibitor” value in data set [1] (icariin 10^−4M) came out at 10.45 ± 1.08%; in data set [1] (icariin 10^−5M) it was 1.85 ± 0.35%; in data set [1] (icariin 10^−6M) it was 0.42 ± 0.48%. Further, the “effect of pre-treatment” value in data set [1] is “significantly inhibited”.

For the compound `COc1ccc(Cc2nccc3cc(OC)c(OC)cc23)cc1OC` [Papaverine, papaverine], the cGMP concentration changes stood at 11.43 ± 65 fmol/mg/min in data set [2] (10^−3M), 9.82 ± 2.16 fmol/mg/min in data set [2] (10^−4M), 8.92 ± 1.87 fmol/mg/min in data set [2] (10^−5M) and 8.66 ± 2.07 fmol/mg/min in data set [2] (10^−6M).

In the case of `Oc1cccc(O)c1O` [Pyrogallol, pyrogallol], the “icariin induced relaxation of CC smooth muscle strips after pre-treatment with the named inhibitor” value in data set [1] (icariin 10^−4M) came to 15.68 ± 1.15%; in data set [1] (icariin 10^−5M), 3.45 ± 0.73%; in data set [1] (icariin 10^−6M) it was 0.85 ± 0.45%. In addition, the “effect of pre-treatment” value in data set [1] is “significantly inhibited”.

With `COC(=O)[C@H]1[C@H]2C[C@@H]3c4[nH]c5cc(OC)ccc5c4CCN3C[C@H]2C[C@@H](OC(=O)c2cc(OC)c(OC)c(OC)c2)[C@@H]1OC` [Reserpine, reserpine], the “Inhibiting effects on ICP” value with adult male rat (Reserpine 10^−4M intracavernosal) amounted to 59.63%; in the data set with adult male rat (Reserpine 10^−5M intracavernosal) it was 33.34%; in the data set on adult male rat (Reserpine 10^−6M intracavernosal), 17.39%; in the data set on adult male rat (Reserpine 10^−7M intracavernosal), 4.81%. In addition, the “sexual dysfunction associated with the agent, % of patients” value with patients is 30-40%.

For `CCCc1nn(C)c2c(=O)[nH]c(-c3cc(S(=O)(=O)N4CCN(C)CC4)ccc3OCC)nc12` [Sildenafil], the “cGMP concentration in clitoris CC” value in data set [3] is “significantly increased”. The 50% effective concentration (EC50) (commonly the midpoint of the concentration-response curve) in data set [3] (Oryctolagus cuniculus, stimulated with SNP, read-out: EC50 (cGMP formation, CC of clitoris)) turned out to be 310 nM; in data set [2] (Oryctolagus cuniculus, read-out: EC50 (cGMP formation, CC of penis)), 310 nM. In addition, it took 14600 nM to reach half-maximal inhibition in data set [4] (IC50). Also, the cGMP concentration changes in data set [2] (10^−3M) was determined as 12.35 ± 2.56 fmol/mg/min; in data set [2] (10^−4M), 11.98 ± 2.39 fmol/mg/min; in data set [2] (10^−5M), 12.69 ± 2.24 fmol/mg/min; in data set [2] (10^−6M), 10.65 ± 2.28 fmol/mg/min.

In the case of `C[C@](N)(Cc1ccc(O)c(O)c1)C(=O)O` [alpha-methyldopa], in the data set on patients, the “sexual dysfunction associated with the agent, % of patients” value was 20-30%.

Take `NS(=O)(=O)c1cc2c(cc1C(F)(F)F)NC(Cc1ccccc1)NS2(=O)=O` (stereo not drawn) [bendrofluazide]: in the data set with patients, the “sexual dysfunction associated with the agent, % of patients” value is on record as 36%.

With `Clc1cccc(Cl)c1NC1=NCCN1` [clodidine], the “sexual dysfunction associated with the agent, % of patients” value with patients is 41%.

Turning to `COc1ccc(-c2oc3c(CC=C(C)C)c(OC4OC(CO)C(O)C(O)C4O)cc(O)c3c(=O)c2OC2OC(C)C(O)C(O)C2OC2OC(CO)C(O)C(O)C2O)cc1` (stereo not drawn) [epimedin A], the “relaxation effects on CC” value in data set [1] was “no significant relaxation effects”.

For the compound `COc1ccc(-c2oc3c(CC=C(C)C)c(O[C@@H]4O[C@H](CO)[C@@H](O)[C@H](O)[C@H]4O)cc(O)c3c(=O)c2O[C@@H]2O[C@@H](C)[C@H](O)[C@@H](O)[C@H]2O[C@@H]2OC[C@@H](O)[C@H](O)[C@H]2O)cc1` [epimedin B], the “relaxation effects on CC” value in data set [1] was “no significant relaxation effects”.

Regarding `COc1ccc(-c2oc3c(CC=C(C)C)c(O[C@@H]4O[C@H](CO)[C@@H](O)[C@H](O)[C@H]4O)cc(O)c3c(=O)c2O[C@@H]2O[C@@H](C)[C@H](O)[C@@H](O)[C@H]2O[C@@H]2O[C@@H](C)[C@H](O)[C@@H](O)[C@H]2O)cc1` [epimedin C], in data set [1], the “relaxation effects on CC” value is “no significant relaxation effects”.

Turning to `COc1ccc2c(c1O)-c1c(O)c(OC)cc3c1[C@H](C2)[N+](C)(C)CC3` [magnoflorine], the “relaxation effects on CC” value in data set [1] is on record as “no significant relaxation effects”.

As to `O=c1c(O)c(-c2ccc(O)c(O)c2)oc2cc(O)cc(O)c12` [querectin], the “relaxation effects on CC” value in data set [1] is on record as “no significant relaxation effects”.
